pIC50: −log10 of the molar value. Read-outs that look alike come from different tables or passages of the source. One block for each compound: values may come before it.
Tests used:
colon tumor cell = test: Colon tumor cell growth, rolipram; format: cell-based; conditions: concentrations up to 100 μM, data not shown
HT-29 cells [1] = test: Growth inhibition with or without H89 pretreatment (CellTiter-Glo); format: cell-based, human; conditions: for pIC50: Homo sapiens
Protocol: (§1) C. […] They are assigned to Pf-2545920 because the x-axis label names it as the compound given in dose-response.
(§2) Growth Assays were performed by seeding 5,000 cells per well in a 96-well microtiter plate, or 2,500 cells per well in half-area 96-well microtiter plates. Cells were allowed to settle onto the bottom of the plate before being dosed with compounds in dose-response for 72 hours at 37°C in a humidified incubator containing 5% CO2. After incubation, growth inhibitory activity was assayed using the Cell Titer Glo Assay (Promega) according to manufacturer's recommendations.

HT-29 cells [2] = test: Kinase inhibitor pretreatment, VASP phosphorylation after Pf-2545920 stimulation; format: cell-based, human
Protocol: as §1
(§3) Cell lysates were separated by SDS-PAGE using 12% polyacrylamide gel, 7.5% for PDE10 protein analysis, followed by electrophoretic transfer to nitrocellulose membranes. The membranes were then blocked at room temperature on an orbital shaker for 1 hour in a solution of 5% non-fat dry milk in TBS with 0.1% Tween 20 (TBS-T). Membranes were then incubated overnight at 4 degrees on an orbital shaker with appropriate primary antibodies. Membranes were then washed three times with TBS-T before addition of appropriate secondary antibodies, and incubated at room temperature for 1 hour on an orbital shaker. Membranes were washed and developed using SuperSignal West Enhanced Chemiluminescence Reagent (Pierce).

HT-29 cells [3] = test: PARP cleavage by Western blot; format: cell-based, human; conditions: HT-29, 0.1 μM KT 5823 for 30 minutes before Pf-2545920 at 5 μM and 10 μM for 6 hours
Protocol: as §3

HCT-15 = test: Growth inhibition assay (Cell Titer Glo), HCT-15; format: cell-based; conditions: Homo sapiens; HCT-15, 72 hours
Protocol: as §2

SW-480 colon tumor cells = test: β-catenin nuclear translocation under Wnt3a stimulation (confocal immunofluorescence); format: cell-based, human; conditions: pre-incubation 30 minutes, Wnt3a conditioned media 5 hours
Protocol: Cover glass bottom 35mm tissue culture dishes were precoated with EmbryoMax 0.1% gelatin from Millipore according to manufacturer's recommendations. Cells were then plated and allowed to grow to 70-90% confluency before treatments. SW-480 cells were serum starved overnight prior to the addition of PDE10 inhibitors at the concentrations indicated. […] Briefly, Wnt3a or parental L-cells lacking Wnt3a were purchased from the ATCC and grown according to the manufacurer's recommendations. Once cells reached confluency, the media was collected and filtered before use. Conditioned media was added to SW-480 cells in order to stimulate nuclear translocation of β-catenin for 5 hours before fixation and staining. Cover glass bottom 35mm tissue culture dishes were precoated with EmbryoMax 0.1% gelatin from Millipore according to manufacturer's recommendations. Cells were then plated and allowed to grow to 70-90% confluency before treatments. Cells were fixed with 10% buffered formalin, before permeabilization with PBS containing 0.1% Trition X-100. Cells were incubated with the appropriate primary antibodies before incubation with secondary antibodies conjugated with Alexa-fluor 488 and mounted using ProLong Gold antifade reagent with DAPI (Molecular Probes-ThermoFisher Scientific). Images were acquired using a Nikon A1 Laser Scanning Confocal microscope. […]

COLO-205 = test: Growth inhibition assay (Cell Titer Glo), COLO-205; format: cell-based; conditions: Homo sapiens; COLO-205, 72 hours
Protocol: as §2

PDE2A = PDE2A (Homo sapiens, UniProt O00408); test: Phosphodiesterase isozyme specificity, PDE2A; format: biochemical
PDE4B2 = PDE4B2 (Homo sapiens, UniProt Q07343); test: Phosphodiesterase isozyme specificity, PDE4B2; format: biochemical; conditions: PDE4B2, cAMP substrate
[4] = system: HCT-116 colon tumor cells; test: VASP/CREB phosphorylation by Western blot (PKG and PKA activation); format: cell-based, human
Protocol: as §3

HT-29 colon tumor cells = test: Fluorescent cytotoxicity assay (CellTox Green); format: cell-based, human; conditions: dose response over time
Protocol: Cells were plated in 96-well microtiter plates at a […] of 5,000 cells per well and treated with compound or vehicle control at the doses and times indicated. Cytotoxicity was measured using CellTox Green Cytotoxicity Assay (Promega) according to the manufacturer's recommendations.

PDE3B = PDE3B (Homo sapiens, UniProt Q13370); test: Phosphodiesterase isozyme specificity, PDE3B; format: biochemical; conditions: @ 10 μM
HT-29 cells [5] = test: Apoptosis, Annexin V-FITC + PI staining by FACS; format: cell-based, human; conditions: 72 hours; for cells staining positive for Annexin V: lower right quadrant; for cells staining positive for both Annexin V and PI: upper right quadrant
Protocol: Apoptosis was assayed using the Annexin V-FITC + PI apoptosis detection kit from Leinco Technologies according to the manufacturer's recommendations. HT-29 cells were incubated with compounds for 72 hrs at 37°C before being analyzed for apoptosis by FACS.

PDE1A = PDE1A (Homo sapiens, UniProt P54750); test: Phosphodiesterase isozyme specificity, PDE1A; format: biochemical; conditions: @ 10 μM
HCT116 = test: Growth inhibition assay (Cell Titer Glo), HCT116; format: cell-based; conditions: Homo sapiens, HCT-116; HCT116, 72 hours
Protocol: as §2

PDE3A = PDE3A (Homo sapiens, UniProt Q14432); test: Phosphodiesterase isozyme specificity, PDE3A; format: biochemical
HCT-116 [6] = test: cGMP EIA assay, intracellular cGMP; format: cell-based, human; conditions: HCT-116, concentration-dependent
Protocol: Total levels of cGMP were measured using a competitive ELISA assay (Cayman Chemical) according to the manufacturer's recommendations. A standard curve is generated using samples of known cGMP concentrations provided with the assay and plotted using linear regression to extrapolate samples.

SW620 = test: Growth inhibition assay (Cell Titer Glo), SW620; format: cell-based; conditions: Homo sapiens, SW-620; SW620, 72 hours
Protocol: as §2

KM12 = test: Growth inhibition assay (Cell Titer Glo), KM12; format: cell-based; conditions: Homo sapiens; KM12, 72 hours
Protocol: as §2

[7] = system: HT-29 PDE10 knockdown cells; test: Growth inhibition, HT-29 PDE10 knockdown cells; format: cell-based; conditions: Homo sapiens; HT-29 PDE10 knockdown (shRNA) cells
Protocol: as §2
(§4) HT-29 PDE10 knockdown cells were generated and described previously. Briefly, lentiviral particles targeting PDE10 were produced in HEK293T cells according to the manufacturer's instruction. HT-29 cells were transduced by the lentivirus particles followed by puromycin selection (5μg/ml) for 2 weeks. Individual cell colonies stably expressing shRNA were selected and isolated in the presence of puromycin, and evaluated by western blotting previously.

PDE11A = PDE11A (Homo sapiens, UniProt Q9HCR9); test: Phosphodiesterase isozyme specificity, PDE11A; format: biochemical; conditions: @ 10 μM
HCC-2998 = test: Growth inhibition assay (Cell Titer Glo), HCC-2998; format: cell-based; conditions: Homo sapiens; HCC-2998, 72 hours
Protocol: as §2

[8] = system: HT-29 vector control cells; test: Growth inhibition, HT-29 vector control cells; format: cell-based; conditions: Homo sapiens
Protocol: as §2, §4

PDE9A = PDE9A (Homo sapiens, UniProt O76083); test: Phosphodiesterase isozyme specificity, PDE9A; format: biochemical; conditions: cGMP substrate, @ 10 μM
PDE5 = PDE5 (Homo sapiens, UniProt O76074); test: Phosphodiesterase isozyme specificity, PDE5; format: biochemical; conditions: PDE5, cGMP substrate
HCT-116 [9] = test: Intracellular cAMP levels; format: cell-based, human; conditions: HCT-116, concentration-dependent
[10] = system: panel of nine human colon tumor cell lines; test: Growth inhibition, panel of nine human colon tumor cell lines; format: cell-based; conditions: 72 hours, read-out: growth inhibition IC50 values, range over all lines
Protocol: as §2

[11] = HT-29, 10 minutes pretreatment in ascending concentrations, then 5μM Pf-2545920 for 1 hour
[12] = HT-29, 30 minutes pretreatment in ascending concentrations, then 5 μM Pf-2545920 for 1 hour
[13] = cAMP substrate, read-out: cAMP IC50
[14] = cGMP substrate, read-out: cGMP IC50

Sequence of PDE1A (P54750 whole entry, species assumed): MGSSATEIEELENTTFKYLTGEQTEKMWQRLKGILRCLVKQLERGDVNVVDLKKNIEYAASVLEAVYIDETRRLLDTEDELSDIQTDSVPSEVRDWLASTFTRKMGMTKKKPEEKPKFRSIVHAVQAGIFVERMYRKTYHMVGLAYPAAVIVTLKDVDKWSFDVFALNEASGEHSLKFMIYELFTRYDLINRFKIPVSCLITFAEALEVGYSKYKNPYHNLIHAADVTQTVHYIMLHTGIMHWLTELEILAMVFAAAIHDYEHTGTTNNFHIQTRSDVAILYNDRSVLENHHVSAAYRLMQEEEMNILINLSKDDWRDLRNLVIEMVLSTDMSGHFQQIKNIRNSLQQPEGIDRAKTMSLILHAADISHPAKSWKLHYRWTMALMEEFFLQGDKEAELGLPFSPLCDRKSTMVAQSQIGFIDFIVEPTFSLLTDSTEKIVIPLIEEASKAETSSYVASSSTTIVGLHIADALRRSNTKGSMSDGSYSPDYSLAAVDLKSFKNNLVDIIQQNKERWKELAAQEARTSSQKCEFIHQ
Sequence of PDE2A (O00408 whole entry, species assumed): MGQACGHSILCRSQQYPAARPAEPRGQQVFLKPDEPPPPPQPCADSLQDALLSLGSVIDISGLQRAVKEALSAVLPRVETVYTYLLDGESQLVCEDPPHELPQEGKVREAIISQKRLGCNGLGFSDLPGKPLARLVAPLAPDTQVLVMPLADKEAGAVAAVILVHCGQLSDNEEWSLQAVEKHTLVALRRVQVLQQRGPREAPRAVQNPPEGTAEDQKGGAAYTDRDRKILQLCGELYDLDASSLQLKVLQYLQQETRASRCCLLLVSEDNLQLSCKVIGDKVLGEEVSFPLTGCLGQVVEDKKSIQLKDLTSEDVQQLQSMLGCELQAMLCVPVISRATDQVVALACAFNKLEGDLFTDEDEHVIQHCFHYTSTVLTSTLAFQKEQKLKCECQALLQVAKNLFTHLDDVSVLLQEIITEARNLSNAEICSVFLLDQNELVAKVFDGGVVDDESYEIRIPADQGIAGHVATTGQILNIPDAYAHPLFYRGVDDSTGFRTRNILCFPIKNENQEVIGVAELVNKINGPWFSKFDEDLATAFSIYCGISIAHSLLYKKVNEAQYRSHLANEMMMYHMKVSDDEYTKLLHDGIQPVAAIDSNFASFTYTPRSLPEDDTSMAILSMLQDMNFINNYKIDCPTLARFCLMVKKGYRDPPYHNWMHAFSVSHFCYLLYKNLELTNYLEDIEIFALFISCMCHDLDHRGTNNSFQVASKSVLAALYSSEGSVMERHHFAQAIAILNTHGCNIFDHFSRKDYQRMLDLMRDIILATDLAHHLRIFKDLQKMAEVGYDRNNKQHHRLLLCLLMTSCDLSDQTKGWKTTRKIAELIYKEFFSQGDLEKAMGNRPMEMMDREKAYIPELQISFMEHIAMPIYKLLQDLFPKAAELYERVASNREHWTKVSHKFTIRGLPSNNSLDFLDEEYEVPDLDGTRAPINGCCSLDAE
Sequence of PDE3B (Q13370 whole entry, species assumed): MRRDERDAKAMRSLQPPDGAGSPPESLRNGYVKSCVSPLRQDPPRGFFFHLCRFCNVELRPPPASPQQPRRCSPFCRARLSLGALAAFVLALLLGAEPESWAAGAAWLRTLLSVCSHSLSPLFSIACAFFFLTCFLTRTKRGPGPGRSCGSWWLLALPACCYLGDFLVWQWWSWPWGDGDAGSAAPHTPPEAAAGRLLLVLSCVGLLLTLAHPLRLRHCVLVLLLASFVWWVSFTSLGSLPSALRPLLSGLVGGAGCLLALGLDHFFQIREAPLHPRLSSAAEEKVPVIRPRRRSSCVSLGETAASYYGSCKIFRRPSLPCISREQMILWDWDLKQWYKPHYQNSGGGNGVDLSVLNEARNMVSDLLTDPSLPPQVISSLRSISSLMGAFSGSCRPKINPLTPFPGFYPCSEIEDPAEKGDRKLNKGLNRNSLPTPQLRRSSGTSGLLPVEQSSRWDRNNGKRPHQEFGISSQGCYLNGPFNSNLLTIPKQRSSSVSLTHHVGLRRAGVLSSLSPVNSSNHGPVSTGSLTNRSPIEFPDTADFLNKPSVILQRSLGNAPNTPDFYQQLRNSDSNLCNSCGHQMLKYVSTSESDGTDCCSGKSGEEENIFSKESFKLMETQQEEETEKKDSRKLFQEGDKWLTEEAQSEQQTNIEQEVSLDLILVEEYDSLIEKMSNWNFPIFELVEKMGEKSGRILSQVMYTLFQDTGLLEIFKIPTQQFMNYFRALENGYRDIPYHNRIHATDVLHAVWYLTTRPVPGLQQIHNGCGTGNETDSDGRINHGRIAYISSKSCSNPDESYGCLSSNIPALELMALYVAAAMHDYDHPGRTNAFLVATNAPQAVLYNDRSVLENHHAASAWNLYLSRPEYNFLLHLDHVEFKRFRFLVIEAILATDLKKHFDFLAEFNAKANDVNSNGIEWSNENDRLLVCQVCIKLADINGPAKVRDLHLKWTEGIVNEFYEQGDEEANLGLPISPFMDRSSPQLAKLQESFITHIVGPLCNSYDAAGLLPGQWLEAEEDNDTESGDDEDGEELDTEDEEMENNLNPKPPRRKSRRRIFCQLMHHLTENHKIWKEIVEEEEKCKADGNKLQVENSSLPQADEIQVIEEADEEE
Sequence of PDE11A (Q9HCR9 whole entry, species assumed): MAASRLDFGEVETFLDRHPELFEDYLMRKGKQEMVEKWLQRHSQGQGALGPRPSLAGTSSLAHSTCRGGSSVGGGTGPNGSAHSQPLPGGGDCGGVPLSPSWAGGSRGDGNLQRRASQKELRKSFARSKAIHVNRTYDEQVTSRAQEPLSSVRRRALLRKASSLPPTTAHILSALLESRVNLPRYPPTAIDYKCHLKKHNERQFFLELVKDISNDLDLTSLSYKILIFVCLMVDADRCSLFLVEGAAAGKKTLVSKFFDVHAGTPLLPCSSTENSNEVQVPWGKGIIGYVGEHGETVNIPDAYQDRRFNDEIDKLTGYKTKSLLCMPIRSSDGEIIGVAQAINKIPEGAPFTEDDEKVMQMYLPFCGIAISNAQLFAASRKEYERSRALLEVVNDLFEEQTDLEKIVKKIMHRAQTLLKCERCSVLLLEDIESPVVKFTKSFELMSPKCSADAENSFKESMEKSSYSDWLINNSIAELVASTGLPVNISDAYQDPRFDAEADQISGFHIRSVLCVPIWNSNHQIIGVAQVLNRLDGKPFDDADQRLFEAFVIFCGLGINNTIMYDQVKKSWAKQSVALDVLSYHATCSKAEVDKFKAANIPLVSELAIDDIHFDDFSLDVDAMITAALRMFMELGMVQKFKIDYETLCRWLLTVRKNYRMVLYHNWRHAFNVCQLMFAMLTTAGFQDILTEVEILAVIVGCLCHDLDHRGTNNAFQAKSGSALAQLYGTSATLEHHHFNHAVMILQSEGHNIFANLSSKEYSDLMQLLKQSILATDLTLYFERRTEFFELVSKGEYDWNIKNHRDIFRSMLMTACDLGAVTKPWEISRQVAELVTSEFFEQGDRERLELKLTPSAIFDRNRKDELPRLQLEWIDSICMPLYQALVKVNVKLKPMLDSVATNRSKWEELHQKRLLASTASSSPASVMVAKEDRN
Sequence of PDE3A (Q14432 whole entry, species assumed): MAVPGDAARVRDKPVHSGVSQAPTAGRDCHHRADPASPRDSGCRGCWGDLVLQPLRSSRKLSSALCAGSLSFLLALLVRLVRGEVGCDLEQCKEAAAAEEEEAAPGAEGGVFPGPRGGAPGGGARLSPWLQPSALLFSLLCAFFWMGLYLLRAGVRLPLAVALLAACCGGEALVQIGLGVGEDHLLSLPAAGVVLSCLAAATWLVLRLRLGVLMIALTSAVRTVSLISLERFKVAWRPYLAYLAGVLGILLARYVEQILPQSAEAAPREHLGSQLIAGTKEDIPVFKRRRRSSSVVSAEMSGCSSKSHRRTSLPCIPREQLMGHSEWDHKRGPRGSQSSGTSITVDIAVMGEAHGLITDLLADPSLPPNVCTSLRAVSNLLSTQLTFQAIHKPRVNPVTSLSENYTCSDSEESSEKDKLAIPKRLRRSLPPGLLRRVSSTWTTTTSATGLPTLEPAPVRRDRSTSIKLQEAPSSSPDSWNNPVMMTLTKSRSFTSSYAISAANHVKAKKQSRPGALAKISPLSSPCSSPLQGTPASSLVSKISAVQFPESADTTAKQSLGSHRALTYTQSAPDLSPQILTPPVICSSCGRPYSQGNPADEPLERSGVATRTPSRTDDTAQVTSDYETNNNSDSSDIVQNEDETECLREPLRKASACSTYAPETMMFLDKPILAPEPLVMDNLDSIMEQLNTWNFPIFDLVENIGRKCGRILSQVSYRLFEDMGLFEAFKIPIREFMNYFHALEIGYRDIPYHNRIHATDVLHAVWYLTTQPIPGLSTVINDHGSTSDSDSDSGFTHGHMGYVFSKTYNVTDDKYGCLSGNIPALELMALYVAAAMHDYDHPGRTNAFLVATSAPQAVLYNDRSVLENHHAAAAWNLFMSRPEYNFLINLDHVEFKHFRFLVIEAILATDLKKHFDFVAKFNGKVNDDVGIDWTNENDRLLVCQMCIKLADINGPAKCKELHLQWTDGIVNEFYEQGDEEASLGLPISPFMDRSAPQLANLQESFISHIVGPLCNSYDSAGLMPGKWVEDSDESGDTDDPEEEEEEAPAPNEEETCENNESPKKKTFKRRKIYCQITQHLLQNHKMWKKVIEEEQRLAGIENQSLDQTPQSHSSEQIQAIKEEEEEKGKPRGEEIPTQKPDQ

SMILES: COc1ccc(C2CNC(=O)C2)cc1OC1CCCC1 (stereo not drawn) [rolipram]
colon tumor cell growth (colon tumor cell): did not affect colon tumor cell growth

SMILES: O=S(=O)(NCCNC/C=C/c1ccc(Br)cc1)c1cccc2cnccc12 [H89]
effect on sensitivity of cells to growth inhibitory activity of Pf-2545920 (HT-29 cells [1]; HT-29, 0.1μM H89 for 10 minutes before Pf-2545920 for 72 hours): had no effect on the sensitivity | PKA activation (VASP phosphorylation at serine 157) (HT-29 cells [2]; [11]): blocks the activation of PKA in a concentration-dependent manner | PKG activation (VASP phosphorylation at serine 239) (HT-29 cells [2]; [11]): blocking the activation of PKG, albeit at higher concentrations

SMILES: COC(=O)[C@@]1(OC)C[C@H]2O[C@]1(C)n1c3ccccc3c3c4c(c5c6ccccc6n2c5c31)C(=O)N(C)C4 [KT 5823]
apoptosis by Western blot for cleaved-PARP (HT-29 cells [3]): reduced apoptosis | PKA activity (VASP phosphorylation at serine 157) (HT-29 cells [2]; [12]): minimally affecting the activity of PKA | PKG activation (VASP phosphorylation at serine 239) (HT-29 cells [2]; [12]): caused a decrease in PKG activation

pIC50 (HCT-15): 4.84 | pIC50 (COLO-205): 4.73 | pIC50 (PDE2A; [13]): 4.44 | pIC50 (PDE2A; [14]): < 4.30 | pIC50 (PDE4B2): 5.63 | cAMP IC50 (PDE3B; cAMP substrate): Inactive @ 10 μM | cGMP IC50 (PDE3B; cGMP substrate): Inactive @ 10 μM | cAMP IC50 (PDE1A; cAMP substrate): Inactive @ 10 μM | cGMP IC50 (PDE1A; cGMP substrate): Inactive @ 10 μM | pIC50 (HCT116): 4.71 | pIC50 (PDE3A; [13]): < 4.30 | pIC50 (PDE3A; [14]): < 4.30 | pIC50 (SW620): 4.71 | pIC50 (HT-29 cells [1]; HT-29, pretreated with 0.1μM H89 for 10 minutes, 72 hours): 5.32 | pIC50 (HT-29 cells [1]; HT-29, without H89, 72 hours): 5.34 | pIC50 [7]: 4.87 | cAMP IC50 (PDE11A; cAMP substrate): Inactive @ 10 μM | cGMP IC50 (PDE11A; cGMP substrate): Inactive @ 10 μM | pIC50 (HCC-2998): 4.72 | pIC50 [8]: 5.92 | cGMP IC50 (PDE9A): Inactive @ 10 μM | pIC50 (PDE5): 5.07 | pIC50 [10]: 4.71 to 5.16
SMILES: Cn1cc(-c2ccncc2)c(-c2ccc(OCc3ccc4ccccc4n3)cc2)n1 [Pf-2545920, 2-[4-(1-Methyl-4-pyridin-4-yl-1H-pyrazol-3-yl)-phenoxymethyl]-quinoline]
β-catenin in the nucleus (SW-480 colon tumor cells; SW-480, 10 μM): reduced the amount of β-catenin in the nucleus | total protein levels of β-catenin (SW-480 colon tumor cells; SW-480, 25 μM): total protein levels of β-catenin are decreased | phosphorylated VASP (serine 239 and serine 157) ([4]; HCT-116, 5 μM, time course up to 8 hours, time-dependent): increased the level of phosphorylated VASP | PKG and PKA activation (phosphorylation of VASP and CREB) ([4]; HCT-116, dose response, 1 hour): activated both PKG and PKA | cell death (fluorescence intensity) (HT-29 colon tumor cells): induces cell death in a concentration-dependent manner | cells staining positive for Annexin V (HT-29 cells [5]; HT-29, 10 μM): 25.9% | cells staining positive for both Annexin V and PI (HT-29 cells [5]; HT-29, 10 μM): 31.9% | cells staining positive for Annexin V (HT-29 cells [5]; HT-29, 25 μM): 38.2% | cells staining positive for both Annexin V and PI (HT-29 cells [5]; HT-29, 25 μM): 31.4% | intracellular cGMP levels (HCT-116 [6]): increased | pIC50 (KM12): 5.16 | intracellular cAMP levels (HCT-116 [9]): increased
